Reference: patent publication US6916797B2, “α-arylethylpiperazine derivatives as neurokinin antagonists” (UCB, S.A., priority 2000, dated 2005)

target: NK1 receptors (Homo sapiens, UniProt P25103); assay: Binding of [4,5-3H-Leu10] substance P to human recombinant NK1 receptors expressed in CHO cell membranes; parameters: host or cells: CHO cells; conditions: pIC50 = -log IC50, concentration inhibiting by 50% the specific binding of [4,5-3H] substance P; tested as the free base/salt given in c1
Method: The following test was designed to assess the affinity of test substances for human recombinant NK1 receptors expressed in Chinese Hamster Ovarian (CHO) cells.
CHO cells expressing the human recombinant NK1 receptor are used. The cells were obtained from Euroscreen (Brussels, Belgium).
Cells expressing the human NK1 receptor are routinely cultured in 175 cm2 flasks containing 75 ml of medium F12 (Ham) enriched with 2 mmol/l L-glutamine, 100 IU/ml penicilline, 100 μg/ml streptomycine, 1% sodium pyruvate, 2.5 μg/ml fungizone amphotericin B, 400 μg/ml geneticin and supplemented with 10% foetal calf serum. […] When subcultured, the cells are seeded at a concentration of 50,000 cells/cm2.
Confluent cells are gently scraped and resuspended in 25 ml of phosphate buffered saline without calcium and magnesium. The cellular suspension is centrifuged at 1500×g for 3 min (4° C.). The cell pellet is homogenized in a 15 mmol/l Tris-HCl (pH 7.5) buffer, 2 mmol/l MgCl2, 0.3 mmol/l EDTA, 1 mmol/l EGTA. The crude membrane fraction is collected by two consecutive centrifugation steps at 40,000×g for 25 min (4° C.). The final pellet is resuspended in 20 mmol/l Tris-HCl (pH 7.4), 250 mmol/l sucrose buffer at a protein concentration ranging from 2 to 6 mg/ml and stored in liquid nitrogen. • 1.2.2. Test Design
The inhibition constant (Ki) is determined using increasing concentrations of the test substance. The concentration range usually encompasses 6 log units with variable steps (0.3 to 1 log). Assays are performed in mono- or duplicate.
Membranes are incubated at 25° C. for 60 min in 0.5 ml of a 50 mmol/l Tris-HCl buffer (pH 7.4) containing 2 mmol/l MgCl2, 100 μg/ml bacitracine, 0.1 to 0.4×10^−9 mol/l of [4,5^3H-Leu^10] substance P (specific activity>100 Ci/mmol) and increasing concentrations of the test substance. […] Membrane-bound and free radioligands are separated by rapid filtration through glass fiber filters (equivalent to Whatman GF/C or GF/B; VEL, Belgium) presoaked in 0.1% polyethyleneimine to reduce non specific binding. Samples and filters are rinsed by at least 6 ml of 50 mmol/l Tris-HCl (pH 7.4) buffer.
Initial values for the different variables may be provided by the experimenter.

Chain of NK1 receptors (P25103 whole entry): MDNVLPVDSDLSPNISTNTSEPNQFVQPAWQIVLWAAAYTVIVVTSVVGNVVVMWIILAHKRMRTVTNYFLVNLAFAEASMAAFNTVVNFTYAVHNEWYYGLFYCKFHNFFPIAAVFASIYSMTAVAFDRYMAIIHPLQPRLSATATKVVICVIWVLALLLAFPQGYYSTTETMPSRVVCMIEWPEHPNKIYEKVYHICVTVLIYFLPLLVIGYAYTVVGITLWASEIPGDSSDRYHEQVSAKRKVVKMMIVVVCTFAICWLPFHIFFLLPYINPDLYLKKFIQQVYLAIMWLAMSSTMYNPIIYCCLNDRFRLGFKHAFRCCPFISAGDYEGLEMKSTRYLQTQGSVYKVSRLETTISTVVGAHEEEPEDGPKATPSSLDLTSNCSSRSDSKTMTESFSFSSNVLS

**Q.** For `O=C(O)c1ccccc1CN1CCN(C(COCc2cc(C(F)(F)F)cc(C(F)(F)F)c2)c2ccccc2)CC1` (racemic) [Compound 241], which IC50 is on record?
**A.** 7.94 nM

**Q.** How did the IC50 turn out when `NC(=O)CCCN1CCN(C(COCc2cc(C(F)(F)F)cc(C(F)(F)F)c2)c2ccccc2)CC1` (stereo not drawn) [Compound 288, 4-{4-[2-(3,5-Bis-trifluoromethyl-benzyloxy)-1-phenyl-ethyl]-piperazin-1-yl}-butyramide] was run?
**A.** 5.01 nM

**Q.** Which IC50 does the source give for `N#CCOCCN1CCN(C(COCc2cc(C(F)(F)F)cc(C(F)(F)F)c2)c2ccccc2)CC1` (racemic) [Compound 155] here?
**A.** 15.8 nM

**Q.** Which IC50 does the source give for `COC(=O)CN1CCN(C(COCc2cc(Br)cc(I)c2)c2ccccc2)CC1` (racemic) [Compound 208] here?
**A.** 63.1 nM

**Q.** `N#CCCCN1CCN(C(COCc2cc(C(F)(F)F)cc(C(F)(F)F)c2)c2ccccc2)CC1` (racemic) [Compound 151] was tested. Which IC50 did it give?
**A.** 20 nM

**Q.** For `CN(C(=O)CN1CCN(C(COCc2cc(C(F)(F)F)cc(C(F)(F)F)c2)c2ccccc2)CC1)C(C)(C)C` (racemic) [Compound 294], which IC50 is on record?
**A.** 12.6 nM

**Q.** `NC(=O)COCCN1CCN([C@H](COCc2cc(C(F)(F)F)cc(C(F)(F)F)c2)c2ccccc2)CC1` [Compound 148] was tested. Which IC50 did it give?
**A.** 39.8 nM

**Q.** How did the IC50 turn out when `NC(=O)CCCCCN1CCN(C(COCc2cc(C(F)(F)F)cc(C(F)(F)F)c2)c2ccccc2)CC1` (racemic) [Compound 150] was run?
**A.** 5.01 nM

**Q.** With `N#CCCCCCN1CCN(C(COCc2cc(C(F)(F)F)cc(C(F)(F)F)c2)c2ccccc2)CC1` (racemic) [Compound 156] as the compound, how does the IC50 read?
**A.** 7.94 nM

**Q.** Which IC50 does the source give for `NC(=O)CCN1CCN(C(COCc2cc(C(F)(F)F)cc(C(F)(F)F)c2)c2ccccc2)CC1` (stereo not drawn) [Compound 146] here?
**A.** 15.8 nM

**Q.** With `FC(F)(F)c1cc(COCC(c2ccccc2)N2CCN(c3ccnc4ccccc34)CC2)cc(C(F)(F)F)c1` (stereo not drawn) [Compound 227] as the compound, how does the IC50 read?
**A.** 39.8 nM

**Q.** How did the IC50 turn out when `O=C1c2ccccc2C(=O)N1CCN1CCN(C(COCc2cc(C(F)(F)F)cc(C(F)(F)F)c2)c2ccccc2)CC1` (racemic) [Compound 171] was run?
**A.** 79.4 nM

**Q.** For `OCCN1CCN(C(COCc2cc(C(F)(F)F)cc(C(F)(F)F)c2)c2ccccc2)CC1` (racemic) [Compound 157, 2-{4-[2-(3,5-Bis-trifluoromethyl-benzyloxy)-1-phenyl-ethyl]-piperazin-1-yl}-ethanol], which IC50 is on record?
**A.** 6.31 nM

**Q.** Which IC50 does the source give for `CC(=O)NC(CCN1CCN(C(COCc2cc(C(F)(F)F)cc(C(F)(F)F)c2)c2ccccc2)CC1)c1ccccc1` (stereo not drawn) [Compound 308, N-(3-{4-[2-(3,5-Bis-trifluoromethyl-benzyloxy)-1-phenyl-ethyl]-piperazin-1-yl}-1-phenyl-propyl)-acetamide] here?
**A.** 12.6 nM

**Q.** With `CCOP(=O)(CCN1CCN([C@H](COCc2cc(C(F)(F)F)cc(C(F)(F)F)c2)c2ccccc2)CC1)OCC` [Compound 164] as the compound, how does the IC50 read?
**A.** 39.8 nM

**Q.** Which IC50 does the source give for `COc1cc(COCCN2CCN(C(COCc3cc(C(F)(F)F)cc(C(F)(F)F)c3)c3ccccc3)CC2)cc(OC)c1OC` (racemic) [Compound 175] here?
**A.** 5.01 nM

**Q.** How did the IC50 turn out when `COc1cc(CN2CCN([C@@H](COCc3cc(C(F)(F)F)cc(C(F)(F)F)c3)c3ccccc3)CC2)cc(OC)c1OC` [Compound 174] was run?
**A.** 39.8 nM

**Q.** For `COC(=O)CCCCN1CCN(C(COCc2cc(C(F)(F)F)cc(C(F)(F)F)c2)c2ccccc2)CC1` (racemic) [Compound 139], which IC50 is on record?
**A.** 6.31 nM

**Q.** Which IC50 does the source give for `NC(=O)CN1CCN([C@@H](COCc2cc(C(F)(F)F)cc(C(F)(F)F)c2)c2ccccc2)CC1` [Compound 145] here?
**A.** 31.6 nM

**Q.** How did the IC50 turn out when `O=C(CCCCCN1CCN(C(COCc2cc(C(F)(F)F)cc(C(F)(F)F)c2)c2ccccc2)CC1)NO` (stereo not drawn) [Compound 315, 6-{4-[2-(3,5-Bis-trifluoromethyl-benzyloxy)-1-phenyl-ethyl]-piperazin-1-yl}-hexanoic acid hydroxyamide] was run?
**A.** 5.01 nM

**Q.** With `COc1cc(CN2CCN([C@H](COCc3cc(C(F)(F)F)cc(C(F)(F)F)c3)c3ccccc3)CC2)cc(OC)c1OC` [Compound 173] as the compound, how does the IC50 read?
**A.** 25.1 nM

**Q.** How did the IC50 turn out when `O=S1(=O)CCN(CCN2CCN(C(COCc3cc(C(F)(F)F)cc(C(F)(F)F)c3)c3ccccc3)CC2)CC1` (racemic) [Compound 161] was run?
**A.** 7.94 nM

**Q.** `CCOC(=O)CCCCCN1CCN(C(COCc2cc(C(F)(F)F)cc(C(F)(F)F)c2)c2ccccc2)CC1` (racemic) [Compound 141] was tested. Which IC50 did it give?
**A.** 7.94 nM

**Q.** How did the IC50 turn out when `COc1cc(COCCN2CCN(C(COCc3cc(C(F)(F)F)cc(C(F)(F)F)c3)c3ccccc3)CC2)cc(OC)c1OC` (stereo not drawn) [Compound 176] was run?
**A.** 25.1 nM

**Q.** With `OCCOCCN1CCN([C@H](COCc2cc(C(F)(F)F)cc(C(F)(F)F)c2)c2ccccc2)CC1` [Compound 158] as the compound, how does the IC50 read?
**A.** 7.94 nM

**Q.** `NC(=O)CN1CCN(C(COCc2cc(C(F)(F)F)cc(C(F)(F)F)c2)c2cccc3ccccc23)CC1` (racemic) [Compound 191] was tested. Which IC50 did it give?
**A.** 63.1 nM

**Q.** How did the IC50 turn out when `NC(=O)CN1CCN(C(COCc2cc(C(F)(F)F)cc(C(F)(F)F)c2)c2ccccc2)CC1` (stereo not drawn) [Compound 143] was run?
**A.** 39.8 nM

**Q.** Which IC50 does the source give for `FC(F)(F)c1cc(COCC(c2ccccc2)N2CCN(Cc3ccccn3)CC2)cc(C(F)(F)F)c1` (racemic) [Compound 170] here?
**A.** 50.1 nM

**Q.** How did the IC50 turn out when `CC(C)OC(=O)CN1CCN([C@H](COCc2cc(C(F)(F)F)cc(C(F)(F)F)c2)c2ccccc2)CC1` [Compound 136] was run?
**A.** 79.4 nM

**Q.** How did the IC50 turn out when `CC(C)(C)NC(=O)CN1CCN(C(COCc2cc(C(F)(F)F)cc(C(F)(F)F)c2)c2ccccc2)CC1` (racemic) [Compound 293] was run?
**A.** 63.1 nM

**Q.** With `CC(C)OC(=O)CCCCCN1CCN(C(COCc2cc(C(F)(F)F)cc(C(F)(F)F)c2)c2ccccc2)CC1` (racemic) [Compound 142] as the compound, how does the IC50 read?
**A.** 7.94 nM

**Q.** Which IC50 does the source give for `NC(=O)COCCN1CCN([C@@H](COCc2cc(C(F)(F)F)cc(C(F)(F)F)c2)c2ccccc2)CC1` [Compound 149] here?
**A.** 63.1 nM

**Q.** For `CCOC(=O)CCCN1CCN(C(COCc2cc(C(F)(F)F)cc(C(F)(F)F)c2)c2ccccc2)CC1` (racemic) [Compound 138, 4-{4-[2-(3,5-Bis-trifluoromethyl-benzyloxy)-1-phenyl-ethyl]-piperazin-1-yl}-butyric acid ethyl ester], which IC50 is on record?
**A.** 10 nM

**Q.** `NC(=O)CN1CCN([C@H](COCc2cc(C(F)(F)F)cc(C(F)(F)F)c2)c2ccccc2)CC1` [Compound 144, (S)-2-{4-[2-(3,5-Bis-trifluoromethyl-benzyloxy)-1-phenyl-ethyl]-piperazin-1-yl}-acetamide] was tested. Which IC50 did it give?
**A.** 39.8 nM

**Q.** `NC(=O)COCCN1CCN(C(COCc2cc(C(F)(F)F)cc(C(F)(F)F)c2)c2ccccc2)CC1` (racemic) [Compound 147] was tested. Which IC50 did it give?
**A.** 10 nM

**Q.** Which IC50 does the source give for `FC(F)(F)c1cc(COCC(c2ccccc2)N2CCN(CCN3CCOCC3)CC2)cc(C(F)(F)F)c1` (racemic) [Compound 162] here?
**A.** 7.94 nM

**Q.** With `N#CCCCCN1CCN(C(COCc2cc(C(F)(F)F)cc(C(F)(F)F)c2)c2ccccc2)CC1` (racemic) [Compound 152] as the compound, how does the IC50 read?
**A.** 12.6 nM

system: verapamil binding site of the L-type calcium channel; assay: Inhibition of [3H]D888 binding to the verapamil binding site of the L-type calcium channel (rat cerebral cortex membranes); conditions: 10 μmol/l of test substance
Method: 200-250 g male Sprague-Dawley rats are sacrificed by decapitation. Cerebral cortices are quickly dissected on ice and homogenized in a 20 mmol/l Tris-HCl (pH 7.4) buffer containing 250 mmol/l sucrose (buffer A). The homogenate is centrifuged at 30,000 g for 15 min at 4° C. The resulting crude membrane pellet is resuspended in a 50 mmol/l Tris-HCl (pH 7.4) buffer and incubated 15 min at 37° C. before being centrifuged at 30,000×g for 15 min at 4° C. After two more washes under the same conditions, the final pellet is resuspended in buffer A at a protein concentration ranging from 15 to 25 mg/ml and stored in liquid nitrogen.
Binding experiments are essentially performed according to Reynolds J. et al., J. Pharmacol. Exp. Ther. (1986), 237, 731-738. (1986) with slight modifications.
Membranes (120-175 μg/assay) are incubated at 25° C. for 60 min in 0.5 ml of a 50 mmol/l Tris-HCl buffer (pH 7.4) containing 2 mmol/l MgCl2, 0.2 to 0.4×10-9 mol/l of [^3H]D888 (85 Ci/mmol; Amersham, Belgium) and 10 μmol/l of the test substance. The non specific binding (NSB) is defined as the residual binding observed in the presence 10 μM verapamil. Membrane-bound and -free radioligands are separated by rapid filtration through glass fiber filters (equivalent to Whatman GF/C or GF/B; VEL, Belgium) presoaked in 0.1% polyethyleneimine to reduce non specific binding. Samples and filters are rinsed by at least 6 ml of 50 mmol/l Tris-HCl (pH 7.4) buffer. […] The radioactivity trapped onto the filters is counted by liquid scintillation in a β-counter.
The inhibition of the radioligand specific binding is calculated as follows: [formula] • where BI and Bo represent the binding observed in the presence and absence of the test substance respectively; and • BNS is the non specific binding.
Data analysis is performed by a computerized non linear curve fitting method using a set of equations describing several binding models assuming competitive interactions between ligands (Weiland G. A. and P. B. Molinoff Life Science (1981), 29, 313-330; Molinoff P. et al. (1981) Life Sci., 29, 427-443).

**Q.** With `O=C(O)c1ccccc1CN1CCN(C(COCc2cc(C(F)(F)F)cc(C(F)(F)F)c2)c2ccccc2)CC1` (racemic) [Compound 241] as the compound, how does the “% inhibition of [3H]D888 binding to the verapamil binding site of the L-type calcium channel” value read?
**A.** + (+: inhibition comprised between 20 and 50%)

**Q.** Which “% inhibition of [3H]D888 binding to the verapamil binding site of the L-type calcium channel” value does the source give for `N#Cc1ccc(C(COCc2cc(C(F)(F)F)cc(C(F)(F)F)c2)N2CCN(CC(=O)O)CC2)cc1` (stereo not drawn) [Compound 320, {4-[2-(3,5-Bis-trifluoromethyl-benzyloxy)-1-(4-cyano-phenyl)-ethyl]-piperazin-1-yl}-acetic acid] here?
**A.** 0 (0: inhibition < 20%)
